From US20170313674A1, “BENZYLHYDROXIDE DERIVATIVES, PREPARATION THEREOF AND THERAPEUTIC USE THEREOF” (SANOFI, priority 2014, published 2017)
Where two headings read alike, the source gives them in different places.

Assays:
[1] = system: mitochondrial ATP production on non-small cell lung carcinoma cell lines NCI-H460; experiment: Mitochondrial ATP analysis (Cell Titer Glo) in NCI-H460 cells; format: cell-based; conditions: 1-hour incubation, with sodium iodoacetate (100 μM), concentration inhibiting 50% of mitochondrial ATP production, read-out: IC50 (mito ATP)
Summary of the method: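 NCI-H460 cells (1,000/well) treated 24 h after plating for 1 h with compound dose series alone or with 100 μM sodium iodoacetate; oligomycin A (10 μg/ml) and FCCP (30 μM) as controls; Cell Titer Glo luminescence. Mitochondrial ATP = ATP under iodoacetate minus ATP under iodoacetate+oligomycin; IC50 (M).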

HIF-1a = experiment: Western blot model: HIF1-a stabilization in Hep3b cells under hypoxia; format: cell-based; conditions: hypoxia 1% O2, 6 hours; for Western Blot (range of decrease of HIF1-a stabilization): class symbol
Summary of the method: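 Hep3B cells were exposed to compound under hypoxia (1% O2, 37 °C, 5% CO2) for 6 hours. HIF-1a was detected by western blot of 25 μg lysate protein with β-actin as loading control and ECL read-out. Activity is given as a percentage range relative to control.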

IC50 [1] [nM] | IC50 ([1]; Homo sapiens, NCI-H460, 1 h) [nM] | Compound | Western Blot (decrease of HIF1-a stabilization, percentage relative to control) (HIF-1a) [%] | Western Blot (range of decrease of HIF1-a stabilization) (HIF-1a)
2650 | – | COc1cc(C(O)COc2ccc(-c3coc(-c4ccc(OCC(O)c5cc(OC)c(OC)c(OC)c5)cc4)n3)cc2)cc(OC)c1OC (single isomer, unassigned) [Compound I-21, 2-[4-[2-[4-[2-hydroxy-2-(3,4,5-trimethoxyphenyl)ethoxy]phenyl]oxazol-4-yl]phenoxy]-1-(3,4,5-trimethoxyphenyl)ethanol] | 52 | ** (** represents a decrease of HIF-a stabilization between 50 to 70%)
3.68 | – | COc1ccc(C(O)C(C)(C)Oc2ccc(-c3csc(-c4ccc(OC(C)(C)C(O)c5ccc(OC)c(OC)c5)cc4)n3)cc2)cc1OC (stereo not drawn) [Compound I-27, 1-(3,4-dimethoxyphenyl)-2-[4-[2-[4-[2-(3,4-dimethoxyphenyl)-2-hydroxy-1,1-dimethyl-ethoxy]phenyl]thiazol-4-yl]phenoxy]-2-methyl-propan-1-ol] | 40 | * (* represents a decrease of HIF-a stabilization between 30 to 50%)
679 | – | COc1ccc(C(O)COc2ccc(-c3coc(-c4ccc(OCC(O)c5ccc(OC)c(OC)c5)cc4)n3)cc2)cc1OC (single isomer, unassigned) [Compound I-14, 1-(3,4-dimethoxyphenyl)-2-[4-[2-[4-[2-(3,4-dimethoxyphenyl)-2-hydroxy-ethoxy]phenyl]oxazol-4-yl]phenoxy]ethanol] | 59 | ** (** represents a decrease of HIF-a stabilization between 50 to 70%)
300 | – | COc1ccc(C(O)C(C)Oc2ccc(-c3csc(-c4ccc(OC(C)C(O)c5ccc(OC)c(OC)c5)cc4)n3)cc2)cc1OC (single isomer, unassigned) [Compound I-31, 1-(3,4-dimethoxyphenyl)-2-[4-[2-[4-[2-(3,4-dimethoxyphenyl)-2-hydroxy-1-methyl-ethoxy]phenyl]thiazol-4-yl]phenoxy]propan-1-ol] | 64 | ** (** represents a decrease of HIF-a stabilization between 50 to 70%)
– | 426 | COc1ccc(C(O)C(C)Oc2ccc(-c3cnc(-c4ccc(OC(C)C(O)c5ccc(OC)c(OC)c5)cc4)o3)cc2)cc1OC (stereo not drawn) [Compound I-45, 1-(3,4-dimethoxyphenyl)-2-[4-[2-[4-[2-(3,4-dimethoxyphenyl)-2-hydroxy-1-methyl-ethoxy]phenyl]oxazol-5-yl]phenoxy]propan-1-ol] | 87 | *** (*** represents a decrease of HIF-a stabilization higher than 70%)
– | > 10000 | COc1ccc(C(O)COc2ccc(-c3noc(-c4ccc(OCC(O)c5ccc(OC)c(OC)c5)cc4)n3)cc2)cc1OC (single isomer, unassigned) [Compound I-47, 1-(3,4-dimethoxyphenyl)-2-[4-[5-[4-[2-(3,4-dimethoxyphenyl)-2-hydroxy-ethoxy]phenyl]-1,2,4-oxadiazol-3-yl]phenoxy]ethanol] | 51 | ** (** represents a decrease of HIF-a stabilization between 50 to 70%)
69 | – | COc1ccc(C(O)COc2ccc(-c3coc(-c4ccc(OCC(O)c5ccc(OC)c(OC)c5)cc4)n3)cc2)cc1OC (single isomer, unassigned) [Compound I-13, 1-(3,4-dimethoxyphenyl)-2-[4-[2-[4-[2-(3,4-dimethoxyphenyl)-2-hydroxy-ethoxy]phenyl]oxazol-4-yl]phenoxy]ethanol] | 51 | ** (** represents a decrease of HIF-a stabilization between 50 to 70%)
– | 128 | COc1ccc(C(O)C(C)Oc2ccc(-c3coc(-c4ccc(OC(C)C(O)c5ccc(OC)c(OC)c5)cc4)n3)cc2)cc1OC (stereo not drawn) [Compound I-12, 1-(3,4-dimethoxyphenyl)-2-[4-[2-[4-[2-(3,4-dimethoxyphenyl)-2-hydroxy-1-methyl-ethoxy]phenyl]oxazol-4-yl]phenoxy]propan-1-ol] | 38 | * (* represents a decrease of HIF-a stabilization between 30 to 50%)
